Read-outs that look alike come from different tables or passages of the source.
Legend:
HCMV C-A [1] = molecular target: T1, HCMV C-A (Human cytomegalovirus, UniProt P16753, A143V/A209V/C138A/C202A/C84A/C87A); conditions: for t1/2 HCMV C-A: 0.693 divided by kinact
WT HCMV Pr = molecular target: T2, WT HCMV Pr (Human cytomegalovirus, UniProt P16753, A143V/A209V); experiment: biochemical; format: biochemical
T2 sequence (P16753 1-256 A143V/A209V): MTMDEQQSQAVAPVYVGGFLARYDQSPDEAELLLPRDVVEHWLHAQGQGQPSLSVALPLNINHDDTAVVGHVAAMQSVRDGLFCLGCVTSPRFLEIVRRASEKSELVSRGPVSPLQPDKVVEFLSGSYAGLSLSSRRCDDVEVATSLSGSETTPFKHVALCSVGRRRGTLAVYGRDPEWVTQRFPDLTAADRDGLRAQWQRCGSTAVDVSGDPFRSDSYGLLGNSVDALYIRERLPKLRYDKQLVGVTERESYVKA

HCMV C-A (C161) [2] = molecular target: T3, HCMV C-A (C161) (Human cytomegalovirus, UniProt P16753, A143V/A209V/C138A/C202A/C84A/C87A); format: binding; conditions: intact protein LC/MS
HCMV C-A [3] = molecular target: T1, HCMV C-A; experiment: biochemical
[4] = molecular target: HCMV C-A (HCMV Pr C84A, C87A, C138A, C202A) (Human cytomegalovirus, UniProt P16753, A143V/A209V/C138A/C202A/C84A/C87A); experiment: biochemical
HSV1 Pr = HSV1 Pr (Human herpesvirus 1, UniProt P10210); experiment: Fluorogenic substrate inhibition assay, HSV1 Pr; format: biochemical
EBV Pr = experiment: Fluorogenic substrate inhibition assay, EBV Pr; format: biochemical, Epstein-Barr virus; conditions: read-out: IC50 EBV Pr; one hour incubation
HCMV C-A S225M [5] = molecular target: T4, HCMV C-A S225M (Human cytomegalovirus, UniProt P16753, A143V/A209V/C138A/C202A/C84A/C87A/S225M); experiment: Time-course inhibitor labeling by intact protein LC/MS, HCMV C-A S225M dimer; format: binding; conditions: time course in the absence of DTT
HFF-1 cells [6] = experiment: Cytotoxicity determined in parallel to antiviral EC50; conditions: over the course of the antiviral assay
HFF-1 cells [7] = experiment: Cell death three days post-reinfection; format: cell-based, human
HCMV C-A [8] = molecular target: T1, HCMV C-A; experiment: In-gel fluorescence competition assay in HFF-1 cell lysate; format: binding
HCMV C-A S225M [9] = molecular target: T4, HCMV C-A S225M; experiment: KI and kinact determination, HCMV C-A S225M; format: biochemical
HCMV C-A (C161) [10] = molecular target: T3, HCMV C-A (C161); format: binding; conditions: 5 μM protein in Tris, 50 μM compound, overnight
HCMV C-A [11] = molecular target: T1, HCMV C-A; experiment: Time-course inhibitor labeling by intact protein LC/MS, HCMV C-A; format: binding; conditions: time course in the absence of DTT
HCMV C-A [12] = molecular target: T1, HCMV C-A; experiment: In-gel fluorescence direct detection assay in HFF-1 cell lysate; format: binding; conditions: read-out: EC50 reactivity with HCMV C-A (direct in-gel fluorescence); HFF-1 cell lysates
[13] = molecular target: Human Cytomegalovirus Protease C84A, C87A, C138A, C202A, S225M (human cytomegalovirus) (UniProt P16753); experiment: SEC

Compound | kinact HCMV C-A (HCMV C-A [1]) [min⁻¹] | kinact/KI HCMV C-A (HCMV C-A [1]) [min⁻¹ µM⁻¹] | t1/2 HCMV C-A (HCMV C-A [1]) [min] | IC50 (WT HCMV Pr) [µM] | Ki (HCMV C-A [3]) [µM] | IC50 [4] [µM] | IC50 (HSV1 Pr) [µM] | IC50 (EBV Pr) [µM] | also measured
O=C(CCl)Cn1cc(-c2ccccc2)nn1 [Compound 31, 1-Chloro-3-(4-phenyl-1H-1,2,3-triazol-1-yl)propan-2-one] | 0.026 | 0.00068 | 26 | 33 | 38 | 25 |  |  | reactivity with C161 (labeling of HCMV C-A) (HCMV C-A (C161) [2]): showed reactivity with C161
O=C(CCl)Cn1cc(-c2ccc([N+](=O)[O-])cc2)nn1 [Compound 34, 1-Chloro-3-(4-(4-nitrophenyl)-1H-1,2,3-triazol-1-yl)propan-2-one] |  |  |  | 6 |  | 22 | 51 |  | 
N#Cc1ccc(-c2cn(CC(=O)CCl)nn2)cc1 [Compound 35, 4-(1-(3-Chloro-2-oxopropyl)-1H-1,2,3-triazol-4-yl)benzonitrile] |  |  |  | 11 |  | 33 | 207 | 21 | 
O=C(CCl)Cn1cc(-c2ccc(Br)cc2)nn1 [Compound 36, 1-(4-(4-Bromophenyl)-1H-1,2,3-triazol-1-yl)-3-chloropropan-2-one] |  |  |  | 5 |  | 25 | 35 | 17 | 
O=C(CCl)Cn1cc(-c2ccc(Cl)cc2)nn1 [Compound 37, 1-Chloro-3-(4-(4-chlorophenyl)-1H-1,2,3-triazol-1-yl)propan-2-one] |  |  |  | 5 |  | 32 | 98 | 11 | 
O=C(CCl)Cn1cc(-c2cccc(Cl)c2)nn1 [Compound 38, 1-Chloro-3-(4-(3-chlorophenyl)-1H-1,2,3-triazol-1-yl)propan-2-one] |  |  |  | 6 |  | 30 | 145 | 8 | 
CC(=O)Nc1cccc(-c2cn(CC(=O)CCl)nn2)c1 [Compound 39, N-(3-(1-(3-Chloro-2-oxopropyl)-1H-1,2,3-triazol-4-yl)phenyl)acetamide] |  |  |  | 18 |  | 46 | 188 | 52 | 
CNC(=O)OCc1c(-c2ccccc2)nnn1CC(=O)CCl [Compound 41, (1-(3-Chloro-2-oxopropyl)-4-phenyl-1H-1,2,3-triazol-5-yl)methyl methylcarbamate] |  |  |  | 68 |  | 60 | > 1000 | 7 | 
CN(C)C(=O)OCc1c(-c2ccccc2)nnn1CC(=O)CCl [Compound 42, (1-(3-Chloro-2-oxopropyl)-4-phenyl-1H-1,2,3-triazol-5-yl)methyl dimethylcarbamate] |  |  |  | 33 |  | 101 | > 1000 |  | 
O=C(CCl)Cn1nnc(-c2ccccc2)c1COC(=O)NCc1ccccc1 [Compound 43, (1-(3-Chloro-2-oxopropyl)-4-phenyl-1H-1,2,3-triazol-5-yl)methyl benzylcarbamate] | 0.024 | 0.0027 | 29 | 4 | 9 | 33 | > 1000 | 2 | final protein labeling HCMV C-A S225M (HCMV C-A S225M [5]): 100%; CC50 in parallel to antiviral EC50 (HFF-1 cells [6]): 11 μΜ; cell death three days post-reinfection (HFF-1 cells [7]): minimal; EC50 (HCMV C-A [8]): 3 µM; kinact HCMV C-A S225M (HCMV C-A S225M [9]): 0.011 min⁻¹; labeling of HCMV C-A at C161 (HCMV C-A (C161) [10]): 100%; final protein labeling HCMV C-A (HCMV C-A [11]): 100%
COCCNC(=O)OCc1c(-c2ccccc2)nnn1CC(=O)CCl [Compound 44, (1-(3-Chloro-2-oxopropyl)-4-phenyl-1H-1,2,3-triazol-5-yl)methyl (2-methoxyethyl)carbamate] | 0.022 | 0.00076 | 31 | 13 | 29 | 54 | 840 | 12 | 
O=C(CCl)Cn1nnc(-c2ccccc2)c1COC(=O)N1CCOCC1 [Compound 45, (1-(3-Chloro-2-oxopropyl)-4-phenyl-1H-1,2,3-triazol-5-yl)methyl morpholine-4-carboxylate] | 0.020 | 0.00077 | 35 | 53 | 26 | 66 | 670 | 4 | 
O=C(CCl)Cn1nnc(-c2ccccc2)c1COC(=O)NCCN1CCOCC1 [Compound 46, (1-(3-Chloro-2-oxopropyl)-4-phenyl-1H-1,2,3-triazol-5-yl)methyl (2-morpholinoethyl)carbamate] |  |  |  |  |  | 182 |  |  | 
O=C(CCl)Cn1nnc(-c2ccccc2)c1COC(=O)NCCCN1CCCC1=O [Compound 47, (1-(3-Chloro-2-oxopropyl)-4-phenyl-1H-1,2,3-triazol-5-yl)methyl (3-(2-oxopyrrolidin-1-yl)propyl)carbamate] | 0.016 | 0.00076 | 44 |  | 21 | 135 |  |  | 
C#CCNC(=O)OCc1c(-c2ccccc2)nnn1CC(=O)CCl [Compound 48] |  |  |  |  |  |  |  |  | IC50 (WT HCMV Pr; read-out: IC50 WT HCMV Pr, one hour incubation): 8 µM; EC50 (HCMV C-A [12]): 4 µM
Human Cytomegalovirus Protease C84A, C87A, C138A, C202A, S225M (from UniProt P16753 1-256) (enzyme) |  |  |  |  |  |  |  |  | stoichiometry N [13]: 2
